Experiments:
[1] = test system: MOLM-14 F691L cells, FLT3 ITD and FLT3 F691L; experiment: Cell proliferation assay (CellTiter-Glo), MOLM-14 F691L; assay type: cell-based; details: Homo sapiens, 72 h, 3d-Growth, GMean
Source text: The FLT3 inhibitors may be assessed using the MOLM-14, Acute Myeloid Leukemia cell line that endogenously expresses FLT3 ITD or derivatives of the human FLT3 AML cell line which acquired the D835Y (activation loop) of F691L (gatekeeper) mutation after selection in escalating doses of the FLT3 Inhibitor AC220. FLT3 inhibitors may also be assessed using cells that are engineered to express mutant FLT3. For engineered cells, murine Ba/F3 cells were transfected with full-length FLT3 ITD/D835Y mutations. The parental BA/F3 cells are dependent upon Interleukin-3 (IL-3) for survival, and introduction of the FLT3 constructs rendered these cells dependent upon FLT3 kinase activity when cultured in the absences of IL-3. Engineered BA/F3 cell growth assays can be performed in either the […] of IL-3, to assess the compound inhibition of FLT3 or to detect the presence of off-target activity, respectively. Inhibitors of FLT3 kinase activity reduce or eliminate the FLT3 oncogenic signaling, resulting in reduced cell proliferation. This inhibition is measured as a function of compound concentration to asses IC50 values.
Cell lines used in proliferation assays are as follows in Table 3:
Cells were seeded at 1×10^4 cells per well of a 96 well cell culture plate in 50 μl of cell culture medium. Compounds were dissolved in DMSO, typically at a concentration of 0.5 mM and were serially diluted 1:3 for a total of eight points and added to the cells to final concentrations of […], 0.0041, 0.0014 and 0.00046 μM in 100 μl cell culture medium (final concentration 0.2% DMSO). […] The cells were incubated at 37° C., 5% CO2 for three days. CellTiter-Glo Buffer (Promega Cell Viability Assay catalog #G7573) and substrate were equilibrated to room temperature, and enzyme/substrate Recombinant Firefly Luciferase/Beetle Luciferin was reconstituted. The cell plates were equilibrated to room temperature for 30 minutes, then lysed by addition of an equivalent volume of the Celltiter-Glo Reagent. The plate was mixed for 10 minutes on a plate shaker to lyse the cells. The plates were read on a Tecan M1000 using Luminescence protocol modified to read 0.1 s per well. The luminescence reading assesses the ATP content, which correlates directly with cell number such that the reading as a function of compound concentration was used to determine the IC50 value.

FLT3-ITD = target: T1, FLT3-ITD (Homo sapiens, UniProt P36888); experiment: AlphaScreen kinase assay with recombinant enzyme, FLT3-ITD; assay type: biochemical; details: 8pt; read-out: FLT3_ITD 8pt: IC50
T1 sequence (P36888 1-993): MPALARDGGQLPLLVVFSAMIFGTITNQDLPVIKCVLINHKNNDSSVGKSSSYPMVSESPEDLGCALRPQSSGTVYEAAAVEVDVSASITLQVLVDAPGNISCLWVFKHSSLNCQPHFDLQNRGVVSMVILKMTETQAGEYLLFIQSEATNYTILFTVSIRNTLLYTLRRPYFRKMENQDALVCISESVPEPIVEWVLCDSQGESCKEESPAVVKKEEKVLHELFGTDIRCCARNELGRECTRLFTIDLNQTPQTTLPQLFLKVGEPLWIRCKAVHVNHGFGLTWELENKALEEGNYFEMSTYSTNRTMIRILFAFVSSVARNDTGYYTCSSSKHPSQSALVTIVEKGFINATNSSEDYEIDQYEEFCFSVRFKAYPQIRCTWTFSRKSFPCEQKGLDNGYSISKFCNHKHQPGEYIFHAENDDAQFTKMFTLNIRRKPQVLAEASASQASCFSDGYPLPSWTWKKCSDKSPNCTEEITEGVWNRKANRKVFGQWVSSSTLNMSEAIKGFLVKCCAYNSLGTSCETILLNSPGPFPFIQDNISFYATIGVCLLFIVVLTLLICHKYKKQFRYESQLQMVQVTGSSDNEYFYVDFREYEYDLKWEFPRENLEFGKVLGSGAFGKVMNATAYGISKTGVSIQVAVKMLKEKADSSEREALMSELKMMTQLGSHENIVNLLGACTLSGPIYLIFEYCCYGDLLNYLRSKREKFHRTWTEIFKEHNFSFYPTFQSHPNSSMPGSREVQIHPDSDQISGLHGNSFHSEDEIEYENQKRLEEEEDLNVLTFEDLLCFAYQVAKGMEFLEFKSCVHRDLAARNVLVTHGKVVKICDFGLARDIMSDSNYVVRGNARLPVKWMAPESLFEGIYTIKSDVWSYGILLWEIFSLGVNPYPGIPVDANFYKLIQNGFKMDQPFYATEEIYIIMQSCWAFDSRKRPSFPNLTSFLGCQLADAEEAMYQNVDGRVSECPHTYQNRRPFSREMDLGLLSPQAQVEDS
How it was run: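 Tyrosine phosphorylation of biotin-poly(Glu4-Tyr) substrate by recombinant enzyme is detected with PY20 acceptor and streptavidin donor beads after room-temperature incubations of 20 and 60 min. IC50 values were derived at a final 10 μM (FLT3-D835Y, FLT3-ITD) or 100 μM (c-KIT).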

| Compound | IC50 [1] [µM] | IC50 (FLT3-ITD) [µM] |
| --- | --- | --- |
| CC(C)(C#N)NC(=O)c1cccc(-c2cnc3[nH]c(-c4cnn(CCN5CCOCC5)c4)cc3c2)n1 [Compound P-0174, N-(1-cyano-1-methyl-ethyl)-6-[2-[1-(2-morpholinoethyl)pyrazol-4-yl]-1H-pyrrolo[2,3-b]pyridin-5-yl]pyridine-2-carboxamide] | 0.0001 to 10 | 0.0001 to 10 |
| CC(C)(C#N)CNC(=O)c1cccc(-c2cnc3[nH]c(C4=CCN(C(=O)C5CC5)CC4)cc3c2)n1 [Compound P-0162, N-(2-cyano-2-methyl-propyl)-6-[2-[1-(cyclopropanecarbonyl)-3,6-dihydro-2H-pyridin-4-yl]-1H-pyrrolo[2,3-b]pyridin-5-yl]pyridine-2-carboxamide] | 0.0001 to 10 | 0.0001 to 10 |
| CC(C)(C#N)NC(=O)c1cccc(-c2cnc3[nH]c(C4=CCSCC4)cc3c2)n1 [Compound P-0180, N-(1-cyano-1-methyl-ethyl)-6-[2-(3,6-dihydro-2H-thiopyran-4-yl)-1H-pyrrolo[2,3-b]pyridin-5-yl]pyridine-2-carboxamide] | 0.0001 to 10 | 0.0001 to 10 |
| N#CC1CCN(C(=O)c2cccc(-c3cnc4[nH]c(C5=CCN(C(=O)C6CC6)C5)cc4c3)n2)C1 (stereo not shown) [Compound P-0136, 1-[6-[2-[1-(cyclopropanecarbonyl)-2,5-dihydropyrrol-3-yl]-1H-pyrrolo[2,3-b]pyridin-5-yl]pyridine-2-carbonyl]pyrrolidine-3-carbonitrile] | 0.0001 to 10 | 0.0001 to 10 |
| CC(C)(C#N)NC(=O)c1cccc(-c2cnc3[nH]c(-c4cnc(C5CC5)nc4)cc3c2)n1 [Compound P-0166, N-(1-cyano-1-methyl-ethyl)-6-[2-(2-cyclopropylpyrimidin-5-yl)-1H-pyrrolo[2,3-b]pyridin-5-yl]pyridine-2-carboxamide] | 0.0001 to 10 | 0.0001 to 10 |
| CC(C)(C#N)CNC(=O)c1cccc(-c2cnc3[nH]c(-c4ccc(F)cc4)cc3c2)n1 [Compound P-0144, N-(2-cyano-2-methyl-propyl)-6-[2-(4-fluorophenyl)-1H-pyrrolo[2,3-b]pyridin-5-yl]pyridine-2-carboxamide] | 0.0001 to 10 | 0.0001 to 10 |
| CC(C)(C#N)NC(=O)c1cccc(-c2cnc3[nH]c(-c4cnn(Cc5ccccc5)c4)cc3c2)n1 [Compound P-0171, 6-[2-(1-benzylpyrazol-4-yl)-1H-pyrrolo[2,3-b]pyridin-5-yl]-N-(1-cyano-1-methyl-ethyl)pyridine-2-carboxamide] | 0.0001 to 10 | 0.0001 to 10 |
| CN[C@@H]1CCN(C(=O)c2ccc(-c3cnc4[nH]c(-c5ccccc5)cc4c3)s2)C1 [Compound P-0106, [(3R)-3-(methylamino)pyrrolidin-1-yl]-[5-(2-phenyl-1H-pyrrolo[2,3-b]pyridin-5-yl)-2-thienyl]methanone] | 0.0001 to 10 | 0.0001 to 10 |
| O=S(=O)(NC1CC1)c1cccc(-c2cnc3[nH]c(-c4ccccc4)cc3c2)n1 [Compound P-0109, N-cyclopropyl-6-(2-phenyl-1H-pyrrolo[2,3-b]pyridin-5-yl)pyridine-2-sulfonamide] | 0.0001 to 10 | 0.0001 to 10 |
| CC(C)(C#N)NC(=O)c1cccc(-c2cnc3[nH]c(-c4ccc(C5CC5)nc4)cc3c2)n1 [Compound P-0168, N-(1-cyano-1-methyl-ethyl)-6-[2-(6-cyclopropyl-3-pyridyl)-1H-pyrrolo[2,3-b]pyridin-5-yl]pyridine-2-carboxamide] | 0.0001 to 10 | 0.0001 to 10 |
| COCCn1cc(-c2cc3cc(-c4cccc(C(=O)NC(C)(C)C#N)n4)cnc3[nH]2)cn1 [Compound P-0172, N-(1-cyano-1-methyl-ethyl)-6-[2-[1-(2-methoxyethyl)pyrazol-4-yl]-1H-pyrrolo[2,3-b]pyridin-5-yl]pyridine-2-carboxamide] | 0.0001 to 10 | 0.0001 to 10 |
| CC(C)(C#N)NC(=O)c1cccc(-c2cnc3[nH]c(-c4cnn(CCC#N)c4)cc3c2)n1 [Compound P-0170, 6-[2-[1-(2-cyanoethyl)pyrazol-4-yl]-1H-pyrrolo[2,3-b]pyridin-5-yl]-N-(1-cyano-1-methyl-ethyl)pyridine-2-carboxamide] | 0.0001 to 10 | 0.0001 to 10 |
| CC(C)(C#N)NC(=O)c1cccc(-c2cnc3[nH]c(-c4cnn(C5CCNCC5)c4)cc3c2)n1 [Compound P-0187, N-(1-cyano-1-methyl-ethyl)-6-[2-[1-(4-piperidyl)pyrazol-4-yl]-1H-pyrrolo[2,3-b]pyridin-5-yl]pyridine-2-carboxamide] | 0.0001 to 10 | 0.0001 to 10 |
| O=C(c1cccc(-c2cnc3[nH]c(-c4cnn(CC(F)(F)F)c4)cc3c2)n1)N1CCC(F)(F)C1 [Compound P-0112, (3,3-difluoropyrrolidin-1-yl)-[6-[2-[1-(2,2,2-trifluoroethyl)pyrazol-4-yl]-1H-pyrrolo[2,3-b]pyridin-5-yl]-2-pyridyl]methanone] | 0.0001 to 10 | 0.0001 to 10 |
| CC(C)(C#N)NC(=O)c1cccc(-c2cnc3[nH]c(-c4ccc(F)cc4)cc3c2)n1 [Compound P-0145, N-(1-cyano-1-methyl-ethyl)-6-[2-(4-fluorophenyl)-1H-pyrrolo[2,3-b]pyridin-5-yl]pyridine-2-carboxamide] | 0.0001 to 10 | 0.0001 to 10 |
| N#CC1(NC(=O)c2cccc(-c3cnc4[nH]c(-c5ccccc5)cc4c3)n2)CC1 [Compound P-0111, N-(1-cyanocyclopropyl)-6-(2-phenyl-1H-pyrrolo[2.3-b]pyridin-5-yl]pyridine-2-carboxamide] | 0.0001 to 10 | 0.0001 to 10 |
| N#CCCNC(=O)c1cccc(-c2cnc3[nH]c(-c4ccccc4)c(Br)c3c2)n1 [Compound P-0147, 6-(3-bromo-2-phenyl-1H-pyrrolo[2,3-b]pyridin-5-yl)-N-(2-cyanoethyl)pyridine-2-carboxamide] | 0.0001 to 10 | 0.0001 to 10 |
| CC1(C)CC=C(c2cc3cc(-c4cccc(C(=O)N5CCC(C#N)C5)n4)cnc3[nH]2)CC1 (stereo not shown) [Compound P-0131, 1-[6-[2-(4,4-dimethylcyclohexen-1-yl)-1H-pyrrolo[2,3-b]pyridin-5-yl]pyridine-2-carbonyl]pyrrolidine-3-carbonitrile] | 0.0001 to 10 | 0.0001 to 10 |
| CC(C)(C#N)CNC(=O)c1cccc(-c2cnc3[nH]c(-c4cnn(C(F)F)c4)cc3c2)n1 [Compound P-0153, N-(2-cyano-2-methyl-propyl)-6-[2-[1-(difluoromethyl)pyrazol-4-yl]-1H-pyrrolo[2,3-b]pyridin-5-yl]pyridine-2-carboxamide] | 0.0001 to 10 | 0.0001 to 10 |
| Cc1nn(C(C)C)cc1-c1cc2cc(-c3cccc(C(=O)NC(C)(C)C#N)n3)cnc2[nH]1 [Compound P-0178, N-(1-cyano-1-methyl-ethyl)-6-[2-(1-isopropyl-3-methyl-pyrazol-4-yl)-1H-pyrrolo[2,3-b]pyridin-5-yl]pyridine-2-carboxamide] | 0.0001 to 10 | 0.0001 to 10 |
